molecular target: T1, Recombinant human Met (c-Met) (Homo sapiens, UniProt P08581); assay: Inhibition of c-Met kinase activity using Transcreener FP assay; format: biochemical; conditions: IC50, inhibition of c-Met kinase activity, Poly E4Y substrate, 28° C. 45 min
T1 construct: purchased Invitrogen PV3143
Method: Compound dilution: dilute test articles to 5 folds of the testing concentration using 20% DMSO.
The mixture is kept on ice until use;
Prepare ATP standard curve stock as following:
3. Enzymatic reaction: in 96-well reaction plate
Add 5 μL of test article or 5 μL of 20% DMSO or 5 μL of 500 mM EDTA;
Add 10 μL of Enzyme/Substrate stock;
Add 10 μL of ATP Diluent to begin the enzyme reaction and mix on plate shaker;
Add 5 μL of 20% DMSO, 10 μL of assay buffer and 10 μL of ATP standard curve stock into standard curve wells;
Gently shake at 28° C. for 45 min.
4. Stop reaction and detect ADP
Prepare Detection Mix: According to the procedures described in the Assay kit, Alexa633 tracer, ADP antibody and stop & detect buffer were added into H2O and mixed thoroughly. Prepare Tracer Only control: According to the procedures described in the Assay kit, ADP Alexa633 tracer and stop & detect buffer were added to H2O and mixed throughly.
Prepare No Tracer control: According to the procedures described in the Assay kit, the stop & detect buffer was diluted with H2O;
Add 25 μL of detection mix, Tracer Only control and No Tracer control into corresponding wells, respectively;
The reaction plate was gently shaken at 28° C. for 1 h;
Florescence polarization (FP) was measured on TECAN F500. Excitation wavelength: 610 nm, Emission wavelength: 670 nm.
Compound well [ADP] represents the ADP concentration of the compound well. Positive control well [ADP] represents the ADP concentration of the 20% DMSO well. Conversion of mP value to ADP concentration is based on the formula which is determined by standard curve.
IC50: calculated using XL-Fit 2.0 software.

T1 sequence (P08581 956-1390 limits assumed): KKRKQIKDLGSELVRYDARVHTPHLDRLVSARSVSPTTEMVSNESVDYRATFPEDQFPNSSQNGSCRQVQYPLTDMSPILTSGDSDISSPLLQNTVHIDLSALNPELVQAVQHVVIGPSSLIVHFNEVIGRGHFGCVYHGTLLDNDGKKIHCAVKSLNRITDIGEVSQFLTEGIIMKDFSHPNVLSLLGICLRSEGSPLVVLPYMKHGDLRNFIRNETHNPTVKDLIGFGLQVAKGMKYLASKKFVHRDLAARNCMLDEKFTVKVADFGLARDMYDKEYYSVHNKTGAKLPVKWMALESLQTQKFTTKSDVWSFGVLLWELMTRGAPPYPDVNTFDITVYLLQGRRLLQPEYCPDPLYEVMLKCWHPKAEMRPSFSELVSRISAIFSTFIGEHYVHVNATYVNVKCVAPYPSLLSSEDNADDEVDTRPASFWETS

IC50 [nM]	Compound
1 to 100	C[C@@H](c1ccc2nccn2c1)n1nnc2ncc(-c3cnn(C)c3)nc21 [Compound 270]

same assay, conditions: Poly E4Y substrate, 28° C. 45 min, read-out: IC50, inhibition of c-Met kinase activity

Compound	IC50 [nM]
CC(=O)Nc1cc(-c2cnn(C)c2)nc2c1nnn2Cc1ccc2ncccc2c1 [Compound 261, N-(5-(1-methyl-1H-pyrazol-4-yl)-3-(quinolin-6-ylmethyl)-3H-[1,2,3]triazolo[4,5-b]pyridin-7-yl)acetamide]	100 to 1000
c1nc2ccc(Cn3nnc4ncc(-c5cnn(C6CCOCC6)c5)nc43)cn2n1 [Compound 55]	100 to 1000
COc1ccc(Nc2ccc3nnn(Cc4ccc5ncccc5c4)c3n2)nc1 [Compound 234]	100 to 1000
CCn1ncc2sc(Cn3nnc4ncc(-c5cnn(CCO)c5)nc43)cc21 [Compound 38]	100 to 1000
c1cnc2ccc(Cn3nnc4ccc(Nc5ccncc5)nc43)cc2c1 [Compound 236]	100 to 1000
c1cnc2ccc(Cn3nnc4ccc(-c5cnn(C6CCNCC6)c5)nc43)cc2c1 [Compound 94]	100 to 1000
OCCNc1ccnc(Nc2cnc3nnn(Cc4ccc5ncccc5c4)c3n2)c1 [Compound 205]	100 to 1000
OCCn1cc(-c2ccc3nnn(Cc4ccc5ncnn5c4)c3n2)cn1 [Compound 126]	100 to 1000
c1nn(C2COC2)cc1-c1cnc2nnn(Cc3cc4[nH]ncc4s3)c2n1 [Compound 296]	100 to 1000
OC1CCCC1n1cc(-c2ccc3nnn(Cc4ccc5ncccc5c4)c3n2)cn1 (centres unmarked) [Compound 119]	100 to 1000
Cn1cnc(-c2ccc3nnn(Cc4ccc5ncccc5c4)c3n2)c1 [Compound 108]	100 to 1000
N#Cc1ccc(-c2ccc3nnn(Cc4ccc5ncccc5c4)c3n2)cn1 [Compound 103]	100 to 1000
OCCn1cc(-c2cnc3nnn(Cc4ccc5ncsc5c4)c3n2)cn1 [Compound 12]	1 to 100
Cc1cccc(Nc2ccc3nnn(Cc4ccc5ncccc5c4)c3n2)n1 [Compound 182]	1 to 100
c1cc2sc(Cn3nnc4ncc(-c5cnn(C6CCOCC6)c5)nc43)cc2cn1 [Compound 22]	100 to 1000
Cn1cc(-c2ccc3nnn(Cc4ccc5ncnn5c4)c3n2)cn1 [Compound 120]	100 to 1000
CC(C)n1cc(-c2cnc3nnn(Cc4ccc5nccn5c4)c3n2)cn1 [Compound 34]	1 to 100
CN1CCC(n2cc(-c3ccc4nnn(Cc5ccc6ncccc6c5)c4n3)cn2)CC1 [Compound 101]	100 to 1000
Nc1ccc(-c2ccc3nnn(Cc4ccc5ncccc5c4)c3n2)cn1 [Compound 62]	1 to 100
COCCOc1ccncc1Nc1cnc2nnn(Cc3ccc4ncccc4c3)c2n1 [Compound 208]	100 to 1000
c1csc(-c2cnc3nnn(Cc4cc5cccnc5s4)c3n2)c1 [Compound 6]	100 to 1000

Compound	IC50 [nM]
OCCn1cc(-c2cnc3nnn(Cc4cc5cccnc5s4)c3n2)cn1 [Compound 5]	100 to 1000
CCn1cc(-c2ccc3nnn(Cc4ccc5nccn5c4)c3n2)cn1 [Compound 135]	1 to 100
Cn1ccc(Nc2ccc3nnn(Cc4ccc5ncccc5c4)c3n2)n1 [Compound 189]	1 to 100
COCCOc1cc(Nc2cnc3nnn(Cc4ccc5ncccc5c4)c3n2)ccn1 [Compound 186]	1 to 100
CCn1cc(-c2cnc3nnn(Cc4ccc5nccn5c4)c3n2)cn1 [Compound 8]	1 to 100
COc1cncc(Nc2ccc3nnn(Cc4ccc5ncccc5c4)c3n2)c1 [Compound 180]	1 to 100
CCn1cc(-c2cnc3nnn(Cc4cc5[nH]ncc5s4)c3n2)cn1 [Compound 25]	1 to 100
COCCOc1cccc(Nc2cnc3nnn(Cc4ccc5ncccc5c4)c3n2)c1 [Compound 202]	1 to 100
Cn1cc(-c2ccc3nnn(Cc4ccc5ncsc5n4)c3n2)cn1 [Compound 142]	100 to 1000
CC(c1ccc2ncsc2c1)n1nnc2ncc(-c3cnn(CCO)c3)nc21 (centres unmarked) [Compound 20]	1 to 100
O=C(Cn1cc(-c2cnc3nnn(Cc4ccc5ncsc5c4)c3n2)cn1)NC1CC1 [Compound 24]	1 to 100
Cc1cccnc1Nc1cnc2nnn(Cc3ccc4ncccc4c3)c2n1 [Compound 188]	1 to 100
FC(F)(F)Cn1cc(-c2cnc3nnn(Cc4ccc5ncnn5c4)c3n2)cn1 [Compound 52]	1 to 100
CN(C)Cc1ccc(-c2ccc3nnn(Cc4ccc5ncccc5c4)c3n2)s1 [Compound 105]	100 to 1000
c1cc(-c2cnc3nnn(Cc4ccc5nccn5c4)c3n2)ccn1 [Compound 275]	1 to 100
COCCn1cc(-c2cnc3nnn(Cc4ccc5ncnn5c4)c3n2)cn1 [Compound 53]	100 to 1000
FC(F)(F)Cn1cc(-c2ccc3nnn(Cc4ccc5ncnn5c4)c3n2)cn1 [Compound 121]	100 to 1000
CCn1cc(-c2cnc3nnn(Cc4n[nH]c5ncccc45)c3n2)cn1 [Compound 49]	1 to 100
COCCOc1ncccc1Nc1cnc2nnn(Cc3ccc4ncccc4c3)c2n1 [Compound 216]	100 to 1000
O=C(O)Cn1cc(-c2ccc3nnn(Cc4ccc5ncccc5c4)c3n2)cn1 [Compound 66]	100 to 1000
OCCn1cnc(-c2ccc3nnn(Cc4ccc5ncccc5c4)c3n2)c1 [Compound 109]	100 to 1000

Other lines, results leading:

IC50 [nM]	Compound
1 to 100	Cc1cccc(Nc2cnc3nnn(Cc4ccc5ncccc5c4)c3n2)n1 [Compound 157]
1 to 100	Cc1cc(Nc2cnc3nnn(Cc4ccc5ncccc5c4)c3n2)no1 [Compound 200]
1 to 100	CCn1cc(-c2ccc3nnn(Cc4n[nH]c5ncccc45)c3n2)cn1 [Compound 137]
1 to 100	N#CCn1cc(-c2ccc3nnn(Cc4ccc5ncccc5c4)c3n2)cn1 [Compound 117]
1 to 100	OCCn1cc(-c2cnc3nnn(Cc4ccc5nccn5n4)c3n2)cn1 [Compound 281]
1 to 100	Cc1coc(Nc2cnc3nnn(Cc4ccc5ncccc5c4)c3n2)n1 [Compound 199]
1 to 100	Cc1ccnc(Nc2cnc3nnn(Cc4ccc5ncccc5c4)c3n2)c1 [Compound 196]
1 to 100	Cn1cc(-c2ccc3nnn(Cc4ccc5nccn5c4)c3n2)cn1 [Compound 133]
1 to 100	FC(F)(F)Cn1cc(-c2cnc3nnn(Cc4cc5[nH]ncc5s4)c3n2)cn1 [Compound 42]
1 to 100	Cn1cc(-c2ccc3nnn(Cc4cc5cccnc5cc4F)c3n2)cn1 [Compound 127]
1 to 100	O=Cc1cnn2ccc(Cn3nnc4ncc(-c5cnn(CCO)c5)nc43)cc12 [Compound 312, 5-((6-(1-(2-Hydroxyethyl)-1H-pyrazol-4-yl)-1H-[1,2,3]triazolo[4,5-b]pyrazin-1-yl)methyl)pyrazolo[1,5-a]pyridine-3-carbaldehyde]
1 to 100	O[C@@H]1CCC[C@H]1Nc1cc(Nc2cnc3nnn(Cc4ccc5ncccc5c4)c3n2)ccn1 [Compound 207]
1 to 100	c1cncc(Nc2ccc3nnn(Cc4ccc5ncccc5c4)c3n2)c1 [Compound 237]
1 to 100	FC(F)(F)Cn1cc(-c2ccc3nnn(Cc4ccc5ncccc5c4)c3n2)cn1 [Compound 147]
1 to 100	CCCn1cc(-c2ccc3nnn(Cc4ccc5ncccc5c4)c3n2)cn1 [Compound 146]
1 to 100	COCc1cnc2ccc(Cn3nnc4ncc(-c5cnn(C)c5)nc43)cn12 [Compound 308]

IC50 [nM]	Compound
1 to 100	N#Cc1ccc(-c2cnc3nnn(Cc4ccn5nccc5c4)c3n2)cn1 [Compound 302]
1 to 100	COCc1cnc2ccc(C(C)n3nnc4ncc(-c5cnn(C)c5)nc43)cn12 (racemic) [Compound 318, 1-(1-(3-(methoxymethyl)imidazo[1,2-a]pyridin-6-yl)ethyl)-6-(1-methyl-1H-pyrazol-4-yl)-1H-[1,2,3]triazolo[4,5-b]pyrazine]
1 to 100	c1cnc2ccc(Cn3nnc4ncc(Nc5ccnc(O[C@H]6CCOC6)c5)nc43)cc2c1 [Compound 217]
1 to 100	Cc1cc(Nc2cnc3nnn(Cc4ccc5ncccc5c4)c3n2)cc(C)n1 [Compound 224]
1 to 100	N#Cc1ccc(-c2cnc3nnn(Cc4cc5[nH]ncc5s4)c3n2)cn1 [Compound 282]
1 to 100	FC(F)(F)c1cccc(Nc2cnc3nnn(Cc4ccc5ncccc5c4)c3n2)n1 [Compound 221]
1 to 100	COc1cc(Nc2ccc3nnn(Cc4ccc5ncccc5c4)c3n2)ccn1 [Compound 179]
1 to 100	c1cnc2ccc(Cn3nnc4ccc(NC5CCOCC5)nc43)cc2c1 [Compound 253]
1 to 100	Cn1cc(-c2ccc3nnn(Cc4cc5[nH]ncc5s4)c3n2)cn1 [Compound 132]
1 to 100	c1ccc(Sc2cnc3nnn(Cc4ccc5ncccc5c4)c3n2)nc1 [Compound 252]
1 to 100	c1cn2cc(Cn3nnc4ncc(-c5cnn(C6CNC6)c5)nc43)ccc2n1 [Compound 290]
1 to 100	COCCNc1cncc(Nc2cnc3nnn(Cc4ccc5ncccc5c4)c3n2)c1 [Compound 203]
1 to 100	C[C@@H](c1ccc2ncccc2c1)n1nnc2ccc(-c3cnn(CCO)c3)nc21 [Compound 77]
1 to 100	CCOC(=O)Cn1cc(-c2ccc3nnn(Cc4ccc5ncccc5c4)c3n2)cn1 [Compound 65]
1 to 100	COCCn1cc(-c2cnc3nnn(Cc4cc5[nH]ncc5s4)c3n2)cn1 [Compound 45]

From US11896592B2, “Certain triazolopyridines and triazolopyrazines, compositions thereof and methods of use therefor” (Hutchison Medipharma Limited, priority 2009, dated 2024)
